Consider 24 compounds from US20230104936A1, “TRPML MODULATORS” (Casma Therapeutics, Inc., priority 2019, published 2023).

Structures are written as SMILES. Bounds are passed on as bounds.

The test system of one assay is TFEB. Briefly: TFEB nuclear translocation assay, HeLa wt cells. It is filed as cell-based. Particulars: 2 hrs compound treatment, Table 1 does not say HeLa wt or TRPML1 KO. The essentials:
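Read-out is the ratio of TFEB immunofluorescence in the nucleus to that in a ring just outside it, measured by automated imaging. HeLa wt cells received compounds for 2 hrs at 37° C before fixation and staining; AC50 values come from this ratio.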
A word on the AC50: it is the concentration at which the activity in the assay is half-maximal. Lower therefore signals greater potency. Take `CC(c1cccc(F)c1N1CCC(CN2C[C@H]3C[C@@H](C2)O3)CC1)S(=O)(=O)c1ccc(S(=O)(=O)N(C)C)cc1` (single isomer, unassigned) [Compound A-849]: the AC50 was in the range of 2010 to 8000 nM.

The assay is the same for the next values; noted with them: Homo sapiens, HeLa, 2 h, 2 hrs compound treatment, Table 1 does not say HeLa wt or TRPML1 KO.
`O=S(=O)(Nc1cc(Cl)ccc1N1CCC2(CCCO2)CC1)c1ccc2c(c1)CCC2` [Compound A-328, N-(5-chloro-2-{1-oxa-8-azaspiro[4.5]decan-8-yl}phenyl)-2,3-dihydro-1H-indene-5-sulfonamide]: the AC50 is no less than 10000 nM.

In the case of `CN(C)S(=O)(=O)c1ccc([S+]([O-])Cc2ccccc2N2CCC(c3ccc(Cl)cc3F)CC2)cc1` (stereo not drawn) [Compound A-190, 4-((2-(4-(4-chloro-2-fluorophenyl)piperidin-1-yl)benzyl)sulfinyl)-N,N-dimethylbenzenesulfonamide], the AC50 is no more than 2000 nM.

In turn, `CN1CC2(CCN(c3ccccc3NS(=O)(=O)c3ccc(S(=O)(=O)N(C)C)cc3)CC2)c2ccncc21` [Compound A-412, N1,N1-dimethyl-N4-(2-{1′-methyl-1′,2′-dihydrospiro[piperidine-4,3′-pyrrolo[2,3-c]pyridin]-1-yl}phenyl)benzene-1,4-disulfonamide] had an AC50 of no more than 2000 nM.

`Cc1nocc1S(=O)(=O)Nc1ccccc1N1CCN(c2ccc(Cl)cc2F)CC1` [Compound A-35, N-{2-[4-(4-chloro-2-fluorophenyl)piperazin-1-yl]phenyl}-3-methyl-1,2-oxazole-4-sulfonamide] came in with an AC50 of no less than 10000 nM.

`CNC(=O)C1(c2ccc(F)cc2F)CCN(c2ccccc2NS(=O)(=O)c2ccc(S(=O)(=O)N(C)C)cc2)CC1` [Compound A-216, 4-(2,4-difluorophenyl)-1-{2-[4-(dimethylsulfamoyl)benzenesulfonamido]phenyl}-N-methylpiperidine-4-carboxamide] showed an AC50 of no more than 2000 nM.

Take `CN(C)S(=O)(=O)c1ccc(S(=O)(=O)Nc2ccccc2N2CCN(C3CCCC3)CC2)cc1` [Compound A-453, N4-[2-(4-cyclopentylpiperazin-1-yl)phenyl]-N1,N1-dimethylbenzene-1,4-disulfonamide]: the AC50 is 2010 to 8000 nM.

`CC1(C)Cc2cc(S(=O)(=O)Nc3cccc(F)c3N3CCC(CN4C5CCC4COC5)CC3)ccc2O1` [Compound A-880, N-{3-fluoro-2-[4-({3-oxa-8-azabicyclo[3.2.1]octan-8-yl}methyl)piperidin-1-yl]phenyl}-2,2-dimethyl-2,3-dihydro-1-benzofuran-5-sulfonamide]: the concentration at half-maximal activity (AC50) is no more than 2000 nM.

`CN(C)S(=N)(=O)c1ccc(S(=O)(=O)Nc2ccccc2N2CCC(COC(F)(F)CF)CC2)cc1` (stereo not drawn) [Compound A-877, N,N-dimethyl-4-[(2-{4-[(1,1,2-trifluoroethoxy)methyl]piperidin-1-yl}phenyl)sulfamoyl]benzene-1-sulfonoimidamide] yielded an AC50 of no more than 2000 nM.

`CN(C)S(=O)(=O)c1ccc(S(=O)(=O)Nc2ccccc2N2CCN(C(=O)C3CCCC3(F)F)CC2)cc1` (stereo not drawn) [Compound A-459, N4-{2-[4-(2,2-difluorocyclopentanecarbonyl)piperazin-1-yl]phenyl}-N1,N1-dimethylbenzene-1,4-disulfonamide] displayed an AC50 of 2010 to 8000 nM.

`CN(C)S(=O)(=O)c1ccc(S(=O)(=O)Nc2ccccc2N2CCC(C3CC3(F)F)CC2)cc1` (stereo not drawn) [Compound A-479, N4-{2-[4-(2,2-difluorocyclopropyl)piperidin-1-yl]phenyl}-N1,N1-dimethylbenzene-1,4-disulfonamide] displayed an AC50 of no more than 2000 nM.

In turn, `O=S(=O)(Nc1cc(Cl)ccc1N1CCCC2(CCCCO2)C1)c1ccc2c(c1)CCC2` (stereo not drawn) [Compound A-316, N-(5-chloro-2-{1-oxa-8-azaspiro[5.5]undecan-8-yl}phenyl)-2,3-dihydro-1H-indene-5-sulfonamide] had an AC50 of 2010 to 8000 nM.

With `CS(=O)(=O)c1ccc(S(=O)(=O)Nc2ccccc2N2CCC(c3ncc(F)cc3F)CC2)cc1` [Compound A-131, N-{2-[4-(3,5-difluoropyridin-2-yl)piperidin-1-yl]phenyl}-4-methanesulfonylbenzene-1-sulfonamide], the AC50 was no more than 2000 nM.

As to `O=S(=O)(Nc1ccccc1N1CCN(c2ccc(Cl)cc2F)CC1)c1ccccn1` [Compound A-20, N-{2-[4-(4-chloro-2-fluorophenyl)piperazin-1-yl]phenyl}pyridine-2-sulfonamide], the half-maximal activity concentration (AC50) was no more than 2000 nM.

As to `CNC(=O)c1ccc(S(=O)(=O)Nc2ccccc2N2CCC(c3ccc(Cl)cc3F)CC2)cc1` [Compound A-48, 4-({2-[4-(4-chloro-2-fluorophenyl)piperidin-1-yl]phenyl}sulfamoyl)-N-methylbenzamide], the AC50 was no less than 10000 nM.

As to `C[C@H]1CN(c2ccccc2NS(=O)(=O)c2ccc(S(=O)(=O)N(C)C)cc2)CCN1C(=O)c1cscn1` [Compound A-416, N1,N1-dimethyl-N4-{2-[(3S)-3-methyl-4-(1,3-thiazole-4-carbonyl)piperazin-1-yl]phenyl}benzene-1,4-disulfonamide], the AC50 fell in the range of 2010 to 8000 nM.

On to `C[C@@H]1COC[C@@H](C)N1CC1CN(c2c(F)cccc2NS(=O)(=O)c2ccc(S(=O)(=O)N(C)C)cc2)C1` (stereo in doubt) [Compound A-873, N1-(2-(3-((3,5-dimethylmorpholino)methyl)azetidin-1-yl)-3-fluorophenyl)-N4,N4-dimethylbenzene-1,4-disulfonamide], for which the half-maximal activity concentration (AC50) was no less than 10000 nM.

With `C[C@@H]1CN(CC2CCN(c3ccccc3NS(=O)(=O)c3cnn(CC4CC4)c3)CC2)C[C@H](C)O1` [Compound A-772, 1-(cyclopropylmethyl)-N-[2-(4-[(2R,6S)-2,6-dimethylmorpholin-4-yl]methylpiperidin-1-yl)phenyl]-1H-pyrazole-4-sulfonamide], the AC50 lay within 8010 to 9990 nM.

`COCC1(C)CCN(c2ccccc2NS(=O)(=O)c2ccc(C)cc2)CC1` [Compound A-539, N-{2-[4-(methoxymethyl)-4-methylpiperidin-1-yl]phenyl}-4-methylbenzene-1-sulfonamide] showed an AC50 of no more than 2000 nM.

In the case of `CC(C)(C)S(=O)(=O)c1ccc(S(=O)(=O)Nc2cccc(Cl)c2N2CCOCC2)cc1` [Compound A-278, N-[3-chloro-2-(morpholin-4-yl)phenyl]-4-(2-methylpropane-2-sulfonyl)benzene-1-sulfonamide], the AC50 was no less than 10000 nM.

Regarding `CC(c1cccc(F)c1N1CCC2(CC1)COC(C)(C)C2)S(=O)(=O)c1ccc(S(=O)(=O)N(C)C)cc1` (stereo not drawn) [Compound A-752, 4-[1-(2-{3,3-dimethyl-2-oxa-8-azaspiro[4.5]decan-8-yl}-3-fluorophenyl)ethanesulfonyl]-N,N-dimethylbenzene-1-sulfonamide], the AC50 was no more than 2000 nM.

Turning to `O=S(=O)(Nc1cc(Cl)ccc1N1CCOCC1)c1ccc(S(=O)(=O)C(F)F)cc1` [Compound A-277, N-[5-chloro-2-(morpholin-4-yl)phenyl]-4-difluoromethanesulfonylbenzene-1-sulfonamide], the AC50 is no less than 10000 nM.

With `O=S(=O)(Nc1cc(Cl)ccc1N1CCCC12CCOC2)c1ccc2c(c1)CCC2` (stereo not drawn) [Compound A-346, N-(5-chloro-2-{7-oxa-1-azaspiro[4.4]nonan-1-yl}phenyl)-2,3-dihydro-1H-indene-5-sulfonamide], the AC50 is no more than 2000 nM.

`COc1ccc(N2CCOCC2)c(NS(=O)(=O)Cc2ccc3c(c2)COCC3)c1` [Compound A-609, 1-(3,4-dihydro-1H-2-benzopyran-7-yl)-N-[5-methoxy-2-(morpholin-4-yl)phenyl]methanesulfonamide] came in with an AC50 of 8010 to 9990 nM.
